Assay results taken from ChEMBL document CHEMBL5058564, “EUbOPEN Chemogenomics Library 2 (Incucyte)” (2022).
*1 amine or outer side, *2 acyl side, *3 side chain or, on linkers, in order; H or OH if unused. Where a SMILES comes first, the peptide text is derived from it. Bridges are numbered along the chain shown (N, C = ends). X1 = O=C(CCC[*:2])[*:1]

What was measured:
Format in all cases: toxicity, cell-based
HEK-293T = assay: Incucyte cell viability with HEK293T; conditions: human, 10 µM, compound concentration 10 uM
Fibroblast = assay: Incucyte cell viability with human fibroblast; conditions: 10 µM, compound concentration 10 uM
U2OS = assay: Incucyte cell viability with U2OS; conditions: human, 10 µM, compound concentration 10 uM
[1] = 0 h, replicate number 1, timepoint 0 hours
[2] = 0 h, replicate number 2, timepoint 0 hours
[3] = 12 h, replicate number 1, timepoint 12 hours
[4] = 6 h, replicate number 1, timepoint 6 hours
[5] = 6 h, replicate number 2, timepoint 6 hours
[6] = 18 h, replicate number 1, timepoint 18 hours
[7] = 18 h, replicate number 2, timepoint 18 hours
[8] = 12 h, replicate number 2, timepoint 12 hours
[9] = 24 h, replicate number 1, timepoint 24 hours
[10] = 24 h, replicate number 2, timepoint 24 hours
Note: unitless GR value; below 1 slowed growth and below 0 cell loss.

| SMILES | Growth Rate (HEK-293T; [1]) | Growth Rate (HEK-293T; [2]) | Growth Rate (HEK-293T; [3]) | Growth Rate (Fibroblast; [1]) | Growth Rate (Fibroblast; [2]) | Growth Rate (U2OS; [1]) | Growth Rate (U2OS; [5]) | Growth Rate (U2OS; [6]) | Growth Rate (U2OS; [7]) | Growth Rate (HEK-293T; [5]) | Growth Rate (HEK-293T; [6]) | Growth Rate (Fibroblast; [6]) | Growth Rate (U2OS; [8]) | Growth Rate (U2OS; [10]) | Growth Rate (U2OS; [2]) | other results |
| --- | --- | --- | --- | --- | --- | --- | --- | --- | --- | --- | --- | --- | --- | --- | --- | --- |
| Cc1ccc(C(C)(O)c2nc3ccccc3s2)c(C)c1 (stereo not drawn) | 0.98 | 0.84 | 0.99 | 0.44 | 0.92 | -0.06 | 0.88 | 0.99 | 0.95 |  |  |  |  |  |  | Growth Rate (Fibroblast; [4]): 0.67 |
| CSCC[C@H](NC=O)C(=O)N[C@@H](CC(C)C)C(=O)N[C@@H](Cc1ccccc1)C(=O)O | 0.95 | 0.68 | 1 | 0.43 | 0.65 |  | 0.44 |  | 0.92 | 0.85 | 0.78 | 0.58 | 0.83 | 0.97 |  | Growth Rate (HEK-293T; [8]): 0.9; Growth Rate (HEK-293T; [9]): 0.82; Growth Rate (Fibroblast; [4]): 0.81; Growth Rate (Fibroblast; [5]): 0.42; Growth Rate (Fibroblast; [3]): 0.83; Growth Rate (Fibroblast; [8]): 0.46; Growth Rate (Fibroblast; [7]): 0.69; Growth Rate (Fibroblast; [9]): 0.27; Growth Rate (Fibroblast; [10]): 0.36 |
| CCCn1c(=O)c2[nH]c(-c3ccc(OCC(=O)Nc4ccc(C#N)cc4)cc3)nc2n(CCC)c1=O |  | 0.64 | 0.85 |  |  | 0.37 |  |  |  |  | 0.94 |  |  |  | -1 | Growth Rate (HEK-293T; [4]): 0.24 |
| COc1cc(C(=O)N(CCCc2ccccc2)Cc2ccc(CC(=O)O)cc2)cc(OC)c1C | 0.55 | 0.84 |  | -0.55 | 0.01 | -0.86 | 0.79 |  | 0.97 |  |  |  | 0.94 | 0.96 |  |  |
| CCCOc1ccc2[nH]cc(C3=CCNCC3)c2n1.Cl |  |  |  |  |  |  |  | 0.82 | 0.95 | 0.51 |  |  | 0.93 | 0.93 |  | Growth Rate (HEK-293T; [8]): 0.75; Growth Rate (HEK-293T; [7]): 0.95; Growth Rate (U2OS; [4]): 0.81; Growth Rate (U2OS; [3]): 0.67; Growth Rate (U2OS; [9]): 0.92 |
| CC[C@H](C)[C@@H]1NC(=O)[C@H](Cc2ccc(OC)cc2)NC(=O)CCCSC[C@@H](C(=O)N2CCC[C@H]2C(=O)N[C@@H](CC(C)C)C(=O)NCC(N)=O)NC(=O)[C@H](CC(N)=O)NC(=O)[C@H](CCC(N)=O)NC1=O [CARBETOCIN] (Y(Me)IQNCPLG-NH2; linker N-5 via X1) | 0.31 | -0.11 | 0.63 | 0.35 | 0.98 |  |  |  |  |  | 0.76 | 0.85 |  |  |  | Growth Rate (HEK-293T; [4]): 1; Growth Rate (HEK-293T; [7]): 1; Growth Rate (HEK-293T; [9]): 0.89; Growth Rate (HEK-293T; [10]): 0.92; Growth Rate (Fibroblast; [9]): 0.54 |
| CN1CCN2c3ccccc3Cc3ccccc3C2C1.Cl (stereo not drawn) [MIANSERIN HYDROCHLORIDE] |  | 0.8 |  |  |  |  | 0.85 | 0.96 | 0.94 |  |  |  | 0.97 | 0.97 | -1 |  |
| CN1CCN2c3ncccc3Cc3ccccc3C2C1 (stereo not drawn) [MIRTAZAPINE] |  |  |  |  |  |  |  |  | 0.79 | 0.53 |  |  | 0.97 | 0.85 | -0.76 | Growth Rate (U2OS; [3]): 0.81; Growth Rate (U2OS; [9]): 0.96 |
| C[C@H](NC(=O)c1c(C(F)F)nn(C)c1Oc1cccc(C(F)(F)F)c1)c1ccc(C(=O)O)cc1 [PALUPIPRANT] |  |  |  | 0.19 | 0.08 | -0.16 |  | 0.93 |  |  |  | 0.96 |  |  | -1 |  |
